Source: ChEMBL document CHEMBL1649249, “Antifungal activity of micafungin in serum” (Antimicrob Agents Chemother, 2009)
*1 amine or outer side, *2 acyl side, *3 side chain or, on linkers, in order; H or OH if unused. Where a SMILES comes first, the peptide text is derived from it. Bridges are numbered along the chain shown (N, C = ends). [ ]: non-standard residue; d: D form. The star is where a group is joined. hTyr(3S-OH,4S-OH,3'-OSO3H) = N[C@H](C(=O)O)[C@H](O)[C@@H](O)c1ccc(O)c(OS(=O)(=O)O)c1; Orn(4R-OH,5R-OH) = O=C([C@H](C[C@@H](O)[C@@H](O)N[*:3])N[*:1])[*:2]; Pro(3S-OH,4S-Me) = C[C@H]1CN[C@H](C(=O)O)[C@H]1O; X1 = CCCCCOc1ccc(-c2cc(-c3ccc(C(=O)*)cc3)no2)cc1; Gln(3R-OH) = NC(=O)C[C@@H](O)[C@H](N)C(=O)O; Hyp = O=C(O)[C@@H]1C[C@@H](O)CN1

Key:
[1] = system: Candida albicans; test: Antifungal activity against Candida albicans FP633 collected from peak serum sample on day 8 from patient with acute myeloid leukemia at 1.1 mg/kg by disk diffusion method; type: functional
[2] = system: Candida albicans; test: Antifungal activity against Candida albicans FP633 collected from trough serum sample on day 15 from patient with acute myeloid leukemia at 1.1 mg/kg by disk diffusion method; type: functional
[3] = system: Candida albicans; test: Antifungal activity against Candida albicans FP633 collected from peak serum sample on day 15 from patient with acute myeloid leukemia at 1.1 mg/kg by disk diffusion method; type: functional
[4] = system: Candida albicans; test: Antifungal activity against Candida albicans FP633 collected from trough serum sample on day 15 from patient with acute lymphoblastic leukemia at 1.2 mg/kg by disk diffusion method; type: functional
[5] = system: Candida albicans; test: Antifungal activity against Candida albicans FP633 collected from peak serum sample on day 15 from patient with acute lymphoblastic leukemia at 1.2 mg/kg by disk diffusion method; type: functional
[6] = system: Candida albicans; test: Antifungal activity against Candida albicans FP633 collected from peak serum sample on day 17 from patient with acute lymphoblastic leukemia at 1.2 mg/kg by disk diffusion method; type: functional
[7] = system: Candida albicans; test: Antifungal activity against Candida albicans FP633 collected from peak serum sample on day 43 from patient with myelodysplastic syndrome at 1.4 mg/kg by disk diffusion method in presence of human serum; type: functional
[8] = system: Candida albicans; test: Antifungal activity against Candida albicans FP633 collected from peak serum sample on day 43 patient with malignant lymphoma at 4.8 mg/kg by disk diffusion method in presence of human serum; type: functional
[9] = system: Candida albicans; test: Antifungal activity against Candida albicans FP633 collected from peak serum sample on day 12 patient with malignant lymphoma at 2.6 mg/kg by disk diffusion method in presence of human serum; type: functional
[10] = system: Candida albicans; test: Antifungal activity against Candida albicans FP633 collected from trough serum sample on day 8 from patient with acute myeloid leukemia at 1.1 mg/kg by disk diffusion method in presence of human serum; type: functional
[11] = system: Candida albicans; test: Antifungal activity against Candida albicans FP633 collected from peak serum sample on day 8 from patient with acute myeloid leukemia at 1.1 mg/kg by disk diffusion method in presence of human serum; type: functional
[12] = system: Candida albicans; test: Antifungal activity against Candida albicans FP633 collected from trough serum sample on day 15 from patient with acute myeloid leukemia at 1.1 mg/kg by disk diffusion method in presence of human serum; type: functional
[13] = system: Candida albicans; test: Antifungal activity against Candida albicans FP633 collected from peak serum sample on day 15 from patient with acute myeloid leukemia at 1.1 mg/kg by disk diffusion method in presence of human serum; type: functional
[14] = system: Candida albicans; test: Antifungal activity against Candida albicans FP633 collected from trough serum sample on day 15 from patient with acute lymphoblastic leukemia at 1.2 mg/kg by disk diffusion method in presence of human serum; type: functional
[15] = system: Candida albicans; test: Antifungal activity against Candida albicans FP633 collected from peak serum sample on day 15 from patient with acute lymphoblastic leukemia at 1.2 mg/kg by disk diffusion method in presence of human serum; type: functional
[16] = system: Candida albicans; test: Antifungal activity against Candida albicans FP633 collected from peak serum sample on day 17 from patient with acute lymphoblastic leukemia at 1.2 mg/kg by disk diffusion method in presence of human serum; type: functional
[17] = Ratio of MIC for Candida albicans FP633 collected from peak serum sample on day 43 from patient with myelodysplastic syndrome at 3.9 mg/kg to Cmax for patient with myelodysplastic syndrome at 3.9 mg/kg; type: functional
[18] = Ratio of MIC for Candida albicans FP633 collected from peak serum sample on day 43 from patient with malignant lymphoma at 4.8 mg/kg to Cmax for patient with malignant lymphoma at 4.8 mg/kg; type: functional
[19] = Ratio of MIC for Candida albicans FP633 collected from peak serum sample on day 12 from patient with malignant lymphoma at 2.6 mg/kg to Cmax for patient with malignant lymphoma at 2.6 mg/kg; type: functional
[20] = Ratio of MIC for Candida albicans FP633 collected from trough serum sample on day 8 from patient with acute myeloid leukemia at 1.1 mg/kg to Cmax for patient with acute myeloid leukemia at 1.1 mg/kg; type: functional
[21] = Ratio of MIC for Candida albicans FP633 collected from peak serum sample on day 8 from patient with acute myeloid leukemia at 1.1 mg/kg to Cmax for patient with acute myeloid leukemia at 1.1 mg/kg; type: functional
[22] = Ratio of MIC for Candida albicans FP633 collected from trough serum sample on day 15 from patient with acute myeloid leukemia at 1.1 mg/kg to Cmax for patient with acute myeloid leukemia at 1.1 mg/kg; type: functional
[23] = Ratio of MIC for Candida albicans FP633 collected from peak serum sample on day 15 from patient with acute myeloid leukemia at 1.1 mg/kg to Cmax for patient with acute myeloid leukemia at 1.1 mg/kg; type: functional
[24] = Ratio of MIC for Candida albicans FP633 collected from trough serum sample on day 15 from patient with acute lymphoblastic leukemia at 1.2 mg/kg to Cmax for patient with acute lymphoblastic leukemia at 1.2 mg/kg; type: functional
[25] = Ratio of MIC for Candida albicans FP633 collected from peak serum sample on day 15 from patient with acute lymphoblastic leukemia at 1.2 mg/kg to Cmax for patient with acute lymphoblastic leukemia at 1.2 mg/kg; type: functional
[26] = Ratio of MIC for Candida albicans FP633 collected from peak serum sample on day 17 from patient with acute lymphoblastic leukemia at 1.2 mg/kg to Cmax for patient with acute lymphoblastic leukemia at 1.2 mg/kg; type: functional
[27] = Ratio of MIC for Candida albicans FP633 collected from peak serum sample on day 43 from patient with myelodysplastic syndrome at 3.9 mg/kg in presence of human serum to Cmax for patient with myelodysplastic syndrome at 3.9 mg/kg; type: functional
[28] = Ratio of MIC for Candida albicans FP633 collected from peak serum sample on day 43 from patient with malignant lymphoma at 4.8 mg/kg in presence of human serum to Cmax for patient with malignant lymphoma at 4.8 mg/kg; type: functional
[29] = Ratio of MIC for Candida albicans FP633 collected from peak serum sample on day 12 from patient with malignant lymphoma at 2.6 mg/kg in presence of human serum to Cmax for patient with malignant lymphoma at 2.6 mg/kg; type: functional
[30] = Ratio of MIC for Candida albicans FP633 collected from trough serum sample on day 8 from patient with acute myeloid leukemia at 1.1 mg/kg in presence of human serum to Cmax for patient with acute myeloid leukemia at 1.1 mg/kg; type: functional
[31] = Ratio of MIC for Candida albicans FP633 collected from peak serum sample on day 8 from patient with acute myeloid leukemia at 1.1 mg/kg in presence of human serum to Cmax for patient with acute myeloid leukemia at 1.1 mg/kg; type: functional
[32] = Ratio of MIC for Candida albicans FP633 collected from trough serum sample on day 15 from patient with acute myeloid leukemia at 1.1 mg/kg in presence of human serum to Cmax for patient with acute myeloid leukemia at 1.1 mg/kg; type: functional
[33] = Ratio of MIC for Candida albicans FP633 collected from peak serum sample on day 15 from patient with acute myeloid leukemia at 1.1 mg/kg in presence of human serum to Cmax for patient with acute myeloid leukemia at 1.1 mg/kg; type: functional
[34] = Ratio of MIC for Candida albicans FP633 collected from trough serum sample on day 15 from patient with acute lymphoblastic leukemia at 1.2 mg/kg in presence of human serum to Cmax for patient with acute lymphoblastic leukemia at 1.2 mg/kg; type: functional
[35] = Ratio of MIC for Candida albicans FP633 collected from peak serum sample on day 15 from patient with acute lymphoblastic leukemia at 1.2 mg/kg in presence of human serum to Cmax for patient with acute lymphoblastic leukemia at 1.2 mg/kg; type: functional
[36] = Ratio of MIC for Candida albicans FP633 collected from peak serum sample on day 17 from patient with acute lymphoblastic leukemia at 1.2 mg/kg in presence of human serum to Cmax for patient with acute lymphoblastic leukemia at 1.2 mg/kg; type: functional
[37] = system: Candida albicans; test: Antimicrobial activity against Candida albicans FP633 in presence of heat inactivated mouse serum; type: functional
[38] = system: Serum; test: Protein binding in human serum; type: ADME, cell-free
[39] = Cmax in patient with malignant lymphoma infected with Candida albicans FP633 at 3.9 mg/kg administered once daily after 10 days by HPLC; type: ADME, organism-based; design: dose 3.9 mg/kg; conditions: human, in vivo
[40] = Cmax in patient with malignant lymphoma infected with Candida albicans FP633 at 5.8 mg/kg administered once daily after 8 days by HPLC; type: ADME, organism-based; design: dose 5.8 mg/kg; conditions: human, in vivo
[41] = Cmax in patient with myelodysplastic syndrome infected with Candida albicans FP633 at 1.4 mg/kg administered once daily after 45 days by HPLC; type: ADME, organism-based; design: dose 1.4 mg/kg; conditions: human, in vivo
[42] = Cmax in patient with malignant lymphoma infected with Candida albicans FP633 at 4.8 mg/kg administered once daily after 43 days by HPLC; type: ADME, organism-based; design: dose 4.8 mg/kg; conditions: human, in vivo
[43] = Cmax in patient with malignant lymphoma infected with Candida albicans FP633 at 2.6 mg/kg administered once daily after 12 days by HPLC; type: ADME, organism-based; design: dose 2.6 mg/kg; conditions: human, in vivo
[44] = Cmax in patient with acute myeloid leukemia infected with Candida albicans FP633 at 1.1 mg/kg administered once daily after 8 days by HPLC; type: ADME, organism-based; design: dose 1.1 mg/kg; conditions: human, in vivo
[45] = Cmax in patient with acute myeloid leukemia infected with Candida albicans FP633 at 1.1 mg/kg administered once daily after 15 days by HPLC; type: ADME, organism-based; design: dose 1.1 mg/kg; conditions: human, in vivo
[46] = Cmax in patient with acute lymphoblastic leukemia infected with Candida albicans FP633 at 1.2 mg/kg administered once daily after 15 days by HPLC; type: ADME, organism-based; design: dose 1.2 mg/kg; conditions: human, in vivo
[47] = Cmax in patient with acute lymphoblastic leukemia infected with Candida albicans FP633 at 1.2 mg/kg administered once daily after 17 days by HPLC; type: ADME, organism-based; design: dose 1.2 mg/kg; conditions: human, in vivo
[48] = system: Candida albicans; test: Antifungal activity against Candida albicans FP633 collected from peak serum sample on day 43 from patient with myelodysplastic syndrome at 1.4 mg/kg by disk diffusion method; type: functional
[49] = system: Candida albicans; test: Antifungal activity against Candida albicans FP633 collected from peak serum sample on day 43 patient with malignant lymphoma at 4.8 mg/kg by disk diffusion method; type: functional
[50] = system: Candida albicans; test: Antifungal activity against Candida albicans FP633 collected from peak serum sample on day 12 patient with malignant lymphoma at 2.6 mg/kg by disk diffusion method; type: functional
[51] = system: Candida albicans; test: Antifungal activity against Candida albicans FP633 collected from trough serum sample on day 8 from patient with acute myeloid leukemia at 1.1 mg/kg by disk diffusion method; type: functional

CCCCCOc1ccc(-c2cc(-c3ccc(C(=O)N[C@H]4C[C@@H](O)[C@@H](O)NC(=O)[C@@H]5[C@@H](O)[C@@H](C)CN5C(=O)[C@H]([C@H](O)CC(N)=O)NC(=O)[C@H]([C@H](O)[C@@H](O)c5ccc(O)c(OS(=O)(=O)O)c5)NC(=O)[C@@H]5C[C@@H](O)CN5C(=O)[C@H]([C@@H](C)O)NC4=O)cc3)no2)cc1 [MICAFUNGIN] (X1-[Orn(4R-OH,5R-OH)]T[Hyp][hTyr(3S-OH,4S-OH,3'-OSO3H)][Gln(3R-OH)][Pro(3S-OH,4S-Me)]; lactam 1-C)
Activity [1]: 3.8 µg/mL | Activity [2]: 1 µg/mL | Activity [3]: 2.5 µg/mL | Activity [4]: 0.9 µg/mL | Activity [5]: 3.3 µg/mL | Activity [6]: 2.9 µg/mL | Activity [7]: 4.2 µg/mL | Activity [8]: 34.8 µg/mL | Activity [9]: 22.1 µg/mL | Activity [10]: 2.1 µg/mL | Activity [11]: 8.1 µg/mL | Activity [12]: 1.7 µg/mL | Activity [13]: 5.2 µg/mL | Activity [14]: 1.6 µg/mL | Activity [15]: 7 µg/mL | Activity [16]: 5.9 µg/mL | Ratio [17]: 38 | Ratio [18]: 38 | Ratio [19]: 37 | Ratio [20]: 42 | Ratio [21]: 42 | Ratio [22]: 32 | Ratio [23]: 45 | Ratio [24]: 40 | Ratio [25]: 52 | Ratio [26]: 44 | Ratio [27]: 63 | Ratio [28]: 94 | Ratio [29]: 135 | Ratio [30]: 78 | Ratio [31]: 96 | Ratio [32]: 58 | Ratio [33]: 92 | Ratio [34]: 71 | Ratio [35]: 109 | Ratio [36]: 91 | MIC [37]: 1 µg/mL | PB [38]: 99.8% | Cmax [39]: 34200 ng/mL | Cmax [40]: 33600 ng/mL | Cmax [41]: 6700 ng/mL | Cmax [42]: 37100 ng/mL | Cmax [43]: 16400 ng/mL | Cmax [44]: 8400 ng/mL | Cmax [45]: 5600 ng/mL | Cmax [46]: 6400 ng/mL | Cmax [47]: 6500 ng/mL | Activity [48]: 2.5 µg/mL | Activity [49]: 14.1 µg/mL | Activity [50]: 6 µg/mL | Activity [51]: 1.1 µg/mL
